Reference: patent US20210115087A1, “CYCLIC PEPTIDE INHIBITORS OF HEDGEHOG PROTEINS” (University of Rochester, priority 2016, published 2021)
“Also recorded” adds a separate entry of the source. *1 amine or outer side, *2 acyl side, *3 side chain or, on linkers, in order; H or OH if unused. Where a SMILES comes first, the peptide text is derived from it. Bridges are numbered along the chain shown (N, C = ends). CH2CH2 = C(C[*:2])[*:1]

What was measured:
[1] = target: T1, GST-Shh (Homo sapiens, UniProt Q15465); test: Hh protein binding immunoassay: FLAG-tagged peptide on plate-immobilized GST-Shh, HRP-conjugated anti-FLAG antibody
T1 construct: poly-histidine (N); made in house; host or cells: E. coli BL21(DE3), vector pET42b
Source text: As for any peptide/protein interaction, various analytical and biophysical methods can be applied to test and assess the ability of the compounds provided herein to bind to Hedgehog proteins. These methods include, but are not limited to immunoassays (e.g., ELISA), radio(immune)assays, fluorescence-based assays, colorimetric assays, and/or techniques such as surface plasmon resonance (SPR), FRET, fluorescence polarization, isothermal calorimetry, NMR, and the like. A method that can be used is a solid phase immunoassay, in which the Hedgehog protein is immobilized on a plate or test tube and then incubated with the peptide at a fixed or variable concentration. In this assay, the peptide is functionalized with a label in the form of an antibody epitope (e.g., ‘FLAG tag’ peptide sequence) or an affinity tag molecule (e.g., biotin). After washing the unbound peptide, the Hedgehog-bound peptide is detected and quantified by means of a colorimetric assay using an enzyme-conjugated antibody (e.g., horseradish peroxidase-conjugated anti-FLAG antibody) or enzyme-conjugated capture protein (e.g., horseradish peroxidase-conjugated streptavidin). […]
To measure the binding affinity of the peptides for Shh, an in vitro assay was established in which recombinant GST-fused Shh is immobilized on microtiter plates and then exposed to the FLAG-tagged peptide at varying concentrations. The Shh-bound peptide is then quantified colorimetrically (λ450) using a horseradish peroxidase (HRP)-conjugated anti-FLAG antibody. […]
Hh protein binding assay. Shh binding activity/affinity of the linear and cyclic peptides was measured using the immunoassay outlined in FIG. 4. […] After washing, 100 μL of 2.2 mM o-phenylenediamine dihydrochloride, 4.2 mM urea hydrogen peroxide, 100 mM dibasic sodium phosphate and 50 mM sodium citrate, pH 5.0 was added to each well, followed by measurement of the absorbance at 450 nm using a Tecan Infinite 1000 plate reader. […]
Target sequence in this assay (Q15465 24-462): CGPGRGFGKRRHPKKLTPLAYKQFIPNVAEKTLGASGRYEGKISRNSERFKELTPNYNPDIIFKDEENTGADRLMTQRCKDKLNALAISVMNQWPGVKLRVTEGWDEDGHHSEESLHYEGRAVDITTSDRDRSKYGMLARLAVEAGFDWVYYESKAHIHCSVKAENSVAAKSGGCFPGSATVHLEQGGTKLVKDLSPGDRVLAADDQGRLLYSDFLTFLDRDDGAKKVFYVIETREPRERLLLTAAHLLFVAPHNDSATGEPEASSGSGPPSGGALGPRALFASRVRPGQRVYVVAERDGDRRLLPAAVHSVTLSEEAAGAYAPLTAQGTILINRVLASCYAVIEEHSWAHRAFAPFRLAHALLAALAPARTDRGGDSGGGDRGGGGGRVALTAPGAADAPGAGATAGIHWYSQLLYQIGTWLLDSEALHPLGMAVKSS

[2] = system: GST-Shh, GST-Ihh, and GST-Dhh; test: Hedgehog analog selectivity: relative binding at fixed peptide concentration; parameters: species or system human; conditions: peptide at fixed concentration of 0.5-1 μM, normalized to highest response
Method: FIG. 14. Hh analog selectivity for linear HHIP L2-derived peptide (HL2-pep) and representative cyclic peptide inhibitors. The data relative to the peptides were derived from direct binding experiments with immobilized Hedgehog proteins (i.e., GST-Shh, GST-Ihh, and GST-Dhh), biotinylated peptides (i.e., Biot-HL2-pep, Biot-HL2-m1, Biot-HL2-m2, Biot-HL2-m3, Biot-HL2-m4, Biot-HL2-m4), and HRP-conjugated streptavidin. The data relative to robotnikinin were derived from competition experiments ([…]+400 nM HL2-m5). For each compound, the response values were normalized to the highest binding response measured across the three Hedgehog analogs.
Hedgehog analog selectivity. KD values for FLAG-HL2-m5 binding to Ihh and Dhh were determined using the colorimetric immunoassay described earlier but using GST-Ihh and GST-Dhh-coated plates, respectively. The peptide relative binding affinity for the three isoforms of Hedgehog was determined using the same assay and peptide solutions at a fixed concentration of 0.5-1 μM. In this case, binding responses were subtracted against the blank (no peptide sample) and normalized to the highest value measured across the three Hh isoforms. Mean values and standard deviations were calculated from experiments performed at least in triplicate.

[3] = system: Shh-mediated Hedgehog pathway signaling in NIH3T3 cells; test: Gli-reporter dual luciferase assay in Shh-N-stimulated NIH-3T3 cells; format: cell-based, mouse
Source text: The ability of the compounds provided herein to inhibit ligand-induced activation of the Hedgehog pathway in a cell can be assessed by means of a cell based assay. In an exemplary procedure, a suitable reporter plasmid is introduced in a Hedgehog responsive mammalian cell. Typically, the reporter plasmid contains a reporter gene encoding (e.g., a gene encoding for firefly luciferase) under a Gli-controlled promoter, thereby providing a reporter gene that is responsive to the activity of the Gli transcription factors. […] The reporter cells are incubated with the Hedgehog protein in the presence and in the absence of the cyclic peptide. The extent of Hedgehog pathway suppression can be determined based on relative activity of the luciferase reporter enzyme, which in turn can be determined by measuring the luminescence signal after addition of a luminogenic substrate of the luciferase enzyme.
To this end, we utilized a cell-based luciferase reporter assay, (Chen, Taipale et al. 2002) in which mouse embryo fibroblasts (NIH3T3) are transfected with vectors encoding for a Firefly luciferase (FF) gene under a Gli-controlled promoter and a Renilla luciferase (Ren) gene under a constitutive promoter. Hedgehog pathway suppression is measured based on the decrease in Firefly/Renilla luminescence ratio in the presence of the inhibitor. […] (Chen, Taipale et al. 2002)
Gli-reporter Assay. NIH-3T3 cells were passaged twice and then plated in 24-well culture dishes at 5×10^5 cells/well in DMEM containing 10% FBS and 1% penicillin/streptomycin. After 24 hours, the cells were transfected (TransIT-2020) with a mixture of a firefly luciferase reporter construct under the control of a Gli1 inducible promoter and a Renilla luciferase reporter construct under a constitutive promoter (40:1) (Cignal GLI Reporter Luciferase Kit, Qiagen). Cells were allowed to reach confluency, at which point the media was changed to Opti-MEM containing 1% FBS and added with 4 nM Shh-N(R&D Systems, Minneapolis, Minn.) in sterile PBS buffer. Synthetic HL2-lin and HL2-m5 were added at the same time at varying concentration (0.01-30 uM), and control cells were prepared by adding vehicle only (1% DMSO). Purmorphamine-treated cells were prepared by adding 5 μM purmorphamine to wells containing 10 μM HL2-m5. After growth for 24 hours at 37° C. in a humidified chamber, the cells were harvested and analyzed for Firefly and Renilla luciferase activity using a Tecan Spark-20 plate reader and a DLR kit (Promega) according to the manufacturer's instructions. Luminescence values were normalized to those of the Shh pathway activated control cells. Mean values and standard deviations were calculated from experiments performed at least in duplicate.

[4] = target: T1, GST-Shh; test: KD (nM)
Source text: Table printed on a drawing sheet, FIG. 9
Head of the field: KD (nM)
The patent's description of the figure: FIG. 9. Shh binding affinity of X5-X8-linked cyclic peptides.
First copying reader's note: The error (±) is printed in the same cell as the KD value.
Where the first naming reader finds the target: description_of_the_figure: direct binding of the selected FLAG tag-fused peptides to plate-immobilized GST-Shh
Target sequence in this assay (Q15465 24-197 limits assumed): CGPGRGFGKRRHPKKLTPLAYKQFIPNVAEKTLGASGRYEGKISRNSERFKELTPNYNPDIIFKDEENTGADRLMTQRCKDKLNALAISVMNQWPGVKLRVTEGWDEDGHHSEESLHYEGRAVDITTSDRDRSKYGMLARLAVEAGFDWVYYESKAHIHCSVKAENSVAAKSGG

For `CSCC[C@@H]1NC(=O)[C@H](C)NC(=O)[C@H](CCC(=O)O)NC(=O)[C@@H](NC(=O)[C@H](Cc2c[nH]c3ccccc23)NC(=O)[C@H](CO)NC(=O)[C@H](CC(C)C)NC(=O)[C@@H](NC(=O)[C@H](CO)NC(=O)CNC(=O)[C@H](CO)NC(=O)CNC(=O)[C@H](CCCCN)NC(=O)[C@H](CC(=O)O)NC(=O)[C@H](CC(=O)O)NC(=O)[C@H](CC(=O)O)NC(=O)[C@H](CC(=O)O)NC(=O)[C@H](CCCCN)NC(=O)[C@H](Cc2ccc(O)cc2)NC(=O)[C@H](CC(=O)O)NC(=O)[C@@H](N)CCSC)[C@@H](C)O)Cc2ccc(cc2)OCCSC[C@@H](C(=O)N[C@H](C(=O)N[C@@H](CC(=O)O)C(=O)O)[C@@H](C)O)NC(=O)[C@H](CCSC)NC(=O)[C@H](CC(=O)O)NC1=O` [FLAG-HL2-m5] (H-MDYKDDDDKGSGSTLSWYEAMDMCTD-OH; linker 18-24 via CH2CH2), the Kd [1] was 170 nM and the “higher binding affinity for Shh compared to the linear L2-derived peptide (FLAG-HL2-pep)” value ([1]; ratio of KD values) was roughly 120 fold.
“HL2-pep: linear peptide derived from the HHIP L2 loop (TLDDMEEMDGLSD)” was tested, and the “Hedgehog analog selectivity profile” value [2] was “Dhh>Shh≈Ihh” and the “inhibitory activity on Hedgehog pathway signaling (in words)” value ([3]; concentrations up to 30 μM, Shh-N-stimulated cells) was “no inhibitory activity; also recorded: unable to suppress signaling”.
For `CSCC[C@H](N)C(=O)N[C@@H](CC(=O)O)C(=O)N[C@@H](Cc1ccc(O)cc1)C(=O)N[C@@H](CCCCN)C(=O)N[C@@H](CC(=O)O)C(=O)N[C@@H](CC(=O)O)C(=O)N[C@@H](CC(=O)O)C(=O)N[C@@H](CC(=O)O)C(=O)N[C@@H](CCCCN)C(=O)NCC(=O)N[C@@H](CO)C(=O)NCC(=O)N[C@@H](CO)C(=O)N[C@H](C(=O)N[C@H](C(=O)N[C@@H](CO)C(=O)N[C@@H](CC(=O)O)C(=O)NCC(=O)N[C@@H](CCC(=O)O)C(=O)N[C@@H](CCC(=O)O)C(=O)N[C@H]1Cc2ccc(cc2)OCCSC[C@@H](C(=O)N[C@@H](CC(C)C)C(=O)N[C@@H](CC(=O)O)C(=O)O)NC(=O)CNC(=O)[C@H](CC(=O)O)NC1=O)C(C)C)[C@@H](C)O` [FLAG-HL2-2m1.1] (H-MDYKDDDDKGSGSTVSDGEEYDGCLD-OH; linker 21-24 via CH2CH2; N-terminus assumed), the Kd [4] was 560 ± 5 nM.
In the case of `CSCC[C@H](N)C(=O)N[C@@H](CC(=O)O)C(=O)N[C@@H](Cc1ccc(O)cc1)C(=O)N[C@@H](CCCCN)C(=O)N[C@@H](CC(=O)O)C(=O)N[C@@H](CC(=O)O)C(=O)N[C@@H](CC(=O)O)C(=O)N[C@@H](CC(=O)O)C(=O)N[C@@H](CCCCN)C(=O)NCC(=O)N[C@@H](CO)C(=O)NCC(=O)N[C@@H](CO)C(=O)N[C@H](C(=O)N[C@@H](CCCNC(=N)N)C(=O)NCC(=O)N[C@@H](CC(=O)O)C(=O)NCC(=O)N[C@@H](CCC(=O)O)C(=O)N[C@@H](CCC(=O)O)C(=O)N[C@H]1Cc2ccc(cc2)OCCSC[C@@H](C(=O)N[C@H](C(=O)N[C@@H](CC(=O)O)C(=O)O)C(C)C)NC(=O)CNC(=O)[C@H](CC(=O)O)NC1=O)[C@@H](C)O` [FLAG-HL2-2m1.2] (H-MDYKDDDDKGSGSTRGDGEEYDGCVD-OH; linker 21-24 via CH2CH2; N-terminus assumed), the Kd [4] is reported as 850 ± 20 nM.
`CC1=C2C[C@H]3[C@@H](CC=C4C[C@@H](O)CC[C@@]43C)[C@@H]2CC[C@]12O[C@@H]1C[C@H](C)CN[C@H]1[C@H]2C` [cyclopamine] was tested, and the “inhibition of Shh-induced luminescence” value ([3]; concentration of 10 μM) was “full inhibition”.
In the case of `c1ccc2c(Oc3nc(Nc4ccc(N5CCOCC5)cc4)c4ncn(C5CCCCC5)c4n3)cccc2c1` [purmorphamine], the “effect of Smo agonist on pathway signaling in HL-m5-treated cells” value ([3]; 5 μM purmorphamine added to 10 μM HL2-m5) is reported as “restored activation of the signaling pathway”.
`CSCC[C@@H]1NC(=O)[C@H](CCC(=O)O)NC(=O)[C@H](CCC(=O)O)NC(=O)[C@@H](NC(=O)[C@H](CC(=O)O)NC(=O)[C@H](CC(=O)O)NC(=O)[C@H](CC(C)C)NC(=O)[C@@H](NC(=O)[C@H](CO)NC(=O)CNC(=O)[C@H](CO)NC(=O)CNC(=O)[C@H](CCCCN)NC(=O)[C@H](CC(=O)O)NC(=O)[C@H](CC(=O)O)NC(=O)[C@H](CC(=O)O)NC(=O)[C@H](CC(=O)O)NC(=O)[C@H](CCCCN)NC(=O)[C@H](Cc2ccc(O)cc2)NC(=O)[C@H](CC(=O)O)NC(=O)[C@@H](N)CCSC)[C@@H](C)O)Cc2ccc(cc2)OCCSC[C@@H](C(=O)N[C@@H](CO)C(=O)N[C@@H](CC(=O)O)C(=O)O)NC(=O)CNC(=O)[C@H](CC(=O)O)NC1=O` [FLAG-HL2-m1] (H-MDYKDDDDKGSGSTLDDYEEMDGCSD-OH; linker 18-24 via CH2CH2; N-terminus assumed) was tested, and the “increase in Shh binding affinity compared to FLAG-HL2-m1” value ([1]; ratio of KD values) was 11 fold.
